Laboratory results: US12077503B2, “Substituted cyclic amides and their use as herbicides” (FMC CORPORATION, priority 2015, dated 2024)

Assays:
Type in all cases: in vivo
[1] = tested on: wheat (Triticum aestivum); assay: Test A postemergence; conditions: Triticum aestivum, post-emergence, 240 h; for plant injury at 125 g/ha: 125 g ai/ha, postemergence, visual injury on 0 to 100 scale (0 no effect, 100 complete control), approx. 10 d, read-out: Wheat plant response rating; for plant injury at 31 g/ha: Postemergence, 31 g ai/ha, visual injury after approx. 10 d, 0 to 100 scale, 0 no effect, 100 complete control, read-out: Plant response rating, Wheat
Method in brief: (§1)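 Compounds were formulated in a non-phytotoxic solvent mixture with surfactant and applied as a preemergence directed soil spray after seeding, or sprayed postemergence over plants 2 to 10 cm tall at the one- to two-leaf stage. Evaluation after about 10 d compared treated with untreated controls, using a scale from 0 (no effect) to 100 (complete control).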

[2] = tested on: pigweed (Amaranthus retroflexus); assay: Test A postemergence; conditions: Amaranthus retroflexus, post-emergence, 240 h; for pest or weed control at 125 g/ha: 125 g ai/ha, postemergence, visual injury on 0 to 100 scale (0 no effect, 100 complete control), approx. 10 d, read-out: Pigweed plant response rating; for pest or weed control at 31 g/ha: Postemergence, 31 g ai/ha, visual injury after approx. 10 d, 0 to 100 scale, 0 no effect, 100 complete control, read-out: Plant response rating, Pigweed
Method in brief: as §1

[3] = tested on: ragweed (common ragweed, Ambrosia elatior); assay: Test A postemergence; conditions: Ambrosia artemisiifolia, post-emergence, 240 h; for pest or weed control at 125 g/ha: 125 g ai/ha, postemergence, visual injury on 0 to 100 scale (0 no effect, 100 complete control), approx. 10 d, read-out: Ragweed plant response rating; for pest or weed control at 31 g/ha: Postemergence, 31 g ai/ha, visual injury after approx. 10 d, 0 to 100 scale, 0 no effect, 100 complete control, read-out: Plant response rating, Ragweed
Method in brief: as §1

[4] = tested on: corn (Zea mays); assay: Test A postemergence; conditions: Zea mays, post-emergence, 240 h; for plant injury at 125 g/ha: 125 g ai/ha, postemergence, visual injury on 0 to 100 scale (0 no effect, 100 complete control), approx. 10 d, read-out: Corn plant response rating; for Corn plant response rating (crop injury, 0 = no effect, 100 = complete kill) at 31 g/ha: Postemergence, 31 g ai/ha, visual injury after approx. 10 d, 0 to 100 scale, 100 complete control
Method in brief: as §1

[5] = tested on: giant foxtail (Setaria faberii); assay: Test A postemergence; conditions: Setaria faberi, post-emergence, 240 h; for pest or weed control at 125 g/ha: 125 g ai/ha, postemergence, visual injury on 0 to 100 scale (0 no effect, 100 complete control), approx. 10 d, read-out: Foxtail, Giant plant response rating; for pest or weed control at 31 g/ha: Postemergence, 31 g ai/ha, visual injury after approx. 10 d, 0 to 100 scale, 0 no effect, 100 complete control, read-out: Plant response rating, Foxtail, Giant
Method in brief: as §1

[6] = tested on: ryegrass, Italian (Italian ryegrass, Lolium multiflorum); assay: Test A postemergence; conditions: Lolium multiflorum, post-emergence, 240 h; for pest or weed control at 125 g/ha: 125 g ai/ha, postemergence, visual injury on 0 to 100 scale (0 no effect, 100 complete control), approx. 10 d, read-out: Ryegrass, Italian plant response rating; for pest or weed control at 31 g/ha: Postemergence, 31 g ai/ha, visual injury after approx. 10 d, 0 to 100 scale, 0 no effect, 100 complete control, read-out: Plant response rating, Ryegrass, Italian
Method in brief: as §1

[7] = tested on: barnyardgrass (Echinochloa crus-galli); assay: Test A postemergence; conditions: Echinochloa crus-galli, post-emergence, 240 h; for pest or weed control at 125 g/ha: 125 g ai/ha, postemergence, visual injury on 0 to 100 scale (0 no effect, 100 complete control), approx. 10 d, read-out: Barnyardgrass plant response rating; for pest or weed control at 31 g/ha: Postemergence, 31 g ai/ha, visual injury after approx. 10 d, 0 to 100 scale, 0 no effect, 100 complete control, read-out: Plant response rating, Barnyardgrass
Method in brief: as §1

[8] = tested on: Galium (catchweed bedstraw, Galium aparine); assay: Test A postemergence; conditions: Galium, post-emergence, 240 h; for pest or weed control at 125 g/ha: 125 g ai/ha, postemergence, visual injury on 0 to 100 scale (0 no effect, 100 complete control), approx. 10 d, read-out: Galium plant response rating; for pest or weed control at 31 g/ha: Postemergence, 31 g ai/ha, visual injury after approx. 10 d, 0 to 100 scale, 0 no effect, 100 complete control, read-out: Plant response rating, Galium
Method in brief: as §1

[9] = tested on: Kochia (Kochia scoparia); assay: Test A postemergence; conditions: Bassia scoparia, post-emergence, 240 h; for pest or weed control at 125 g/ha: 125 g ai/ha, postemergence, visual injury on 0 to 100 scale (0 no effect, 100 complete control), approx. 10 d, read-out: Kochia plant response rating; for pest or weed control at 31 g/ha: Postemergence, 31 g ai/ha, visual injury after approx. 10 d, 0 to 100 scale, 0 no effect, 100 complete control, read-out: Plant response rating, Kochia
Method in brief: as §1

[10] = tested on: blackgrass (Alopecurus myosuroides); assay: Test A postemergence; conditions: Alopecurus myosuroides, post-emergence, 240 h; for pest or weed control at 125 g/ha: 125 g ai/ha, postemergence, visual injury on 0 to 100 scale (0 no effect, 100 complete control), approx. 10 d, read-out: Blackgrass plant response rating; for pest or weed control at 31 g/ha: Postemergence, 31 g ai/ha, visual injury after approx. 10 d, 0 to 100 scale, 0 no effect, 100 complete control, read-out: Plant response rating, Blackgrass
Method in brief: as §1

[11] = tested on: pigweed (Amaranthus retroflexus); assay: Test A preemergence; conditions: Amaranthus retroflexus, pre-emergence, 240 h, 0 to 100 scale where 0 is no effect and 100 is complete control, read-out: Pigweed plant response rating; for pest or weed control at 31 g/ha: 31 g ai/ha, Preemergence; for pest or weed control at 125 g/ha: 125 g ai/ha, preemergence, approx. 10 d
[12] = tested on: ragweed (common ragweed, Ambrosia elatior); assay: Test A preemergence; conditions: Ambrosia artemisiifolia, pre-emergence, 240 h, 0 to 100 scale where 0 is no effect and 100 is complete control, read-out: Ragweed plant response rating; for pest or weed control at 31 g/ha: 31 g ai/ha, Preemergence; for pest or weed control at 125 g/ha: 125 g ai/ha, preemergence, approx. 10 d
Method in brief: as §1

[13] = tested on: giant foxtail (Setaria faberii); assay: Test A preemergence; conditions: Setaria faberi, pre-emergence, 240 h, Preemergence; for pest or weed control at 31 g/ha: 31 g ai/ha, 0 to 100 scale where 0 is no effect and 100 is complete control, read-out: Foxtail, Giant plant response rating; for pest or weed control at 125 g/ha: 125 g ai/ha, visual injury rating after approximately 10 d, read-out: Foxtail, Giant plant response rating (0 to 100 scale, 0 is no effect, 100 is complete control)
Method in brief: as §1

[14] = tested on: ryegrass, Italian (Italian ryegrass, Lolium multiflorum); assay: Test A preemergence; conditions: Lolium multiflorum, pre-emergence, 240 h, 0 to 100 scale where 0 is no effect and 100 is complete control, read-out: Ryegrass, Italian plant response rating; for pest or weed control at 31 g/ha: 31 g ai/ha, Preemergence; for pest or weed control at 125 g/ha: 125 g ai/ha, preemergence, approx. 10 d
Method in brief: as §1

[15] = tested on: barnyardgrass (Echinochloa crus-galli); assay: Test A preemergence; conditions: Echinochloa crus-galli, pre-emergence, 240 h, Preemergence; for pest or weed control at 31 g/ha: 31 g ai/ha, 0 to 100 scale where 0 is no effect and 100 is complete control, read-out: Barnyardgrass plant response rating; for pest or weed control at 125 g/ha: 125 g ai/ha, visual injury rating after approximately 10 d, read-out: Barnyardgrass plant response rating (0 to 100 scale, 0 is no effect, 100 is complete control)
Method in brief: as §1

[16] = tested on: Kochia (Kochia scoparia); assay: Test A preemergence; conditions: Bassia scoparia, pre-emergence, 240 h, 0 to 100 scale where 0 is no effect and 100 is complete control, read-out: Kochia plant response rating; for pest or weed control at 31 g/ha: 31 g ai/ha, Preemergence; for pest or weed control at 125 g/ha: 125 g ai/ha, preemergence, approx. 10 d
Method in brief: as §1

[17] = tested on: sedge, umbrella (small-flower umbrella sedge, Cyperus difformis); assay: Test B flooded paddy test; conditions: Cyperus difformis, 250 g ai/ha, Flood; 0 to 100 scale where 0 is no effect and 100 is complete control; read-out: Sedge, Umbrella plant response rating
Method in brief: (§2)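 2-leaf plants; pots flooded 3 cm over soil; cpd added to paddy water; depth held; greenhouse 13–15 d; visual rating vs controls, 0 = no effect, 100 = complete control.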

[18] = tested on: ducksalad (Heteranthera limosa); assay: Test B flooded paddy test; conditions: Heteranthera limosa, 250 g ai/ha, Flood; 0 to 100 scale where 0 is no effect and 100 is complete control; read-out: Ducksalad plant response rating
Method in brief: as §2

[19] = tested on: rice (Oryra sativa); assay: Test B flooded paddy test; conditions: Oryza sativa, 250 g ai/ha, Flood; 0 to 100 scale where 0 is no effect and 100 is complete control; read-out: Rice plant response rating
Method in brief: as §2

[20] = tested on: barnyardgrass (Echinochloa crus-galli); assay: Test B flooded paddy test; conditions: Echinochloa crus-galli, 250 g ai/ha, Flood; 0 to 100 scale where 0 is no effect and 100 is complete control; read-out: Barnyardgrass plant response rating
Method in brief: as §2

COc1cccc([C@H]2CNC(=O)[C@@H]2C(=O)Nc2cccc(F)c2F)c1F [Compound 1061]
plant injury at 125 g/ha [1]: 0% | plant injury at 31 g/ha [1]: 0% | pest or weed control at 125 g/ha [2]: 0% | pest or weed control at 31 g/ha [2]: 0% | pest or weed control at 125 g/ha [3]: 0% | pest or weed control at 31 g/ha [3]: 0% | plant injury at 125 g/ha [4]: 0% | Corn plant response rating (crop injury, 0 = no effect, 100 = complete kill) at 31 g/ha [4]: 0% | pest or weed control at 125 g/ha [5]: 20% | pest or weed control at 31 g/ha [5]: 0% | pest or weed control at 125 g/ha [6]: 0% | pest or weed control at 31 g/ha [6]: 0% | pest or weed control at 125 g/ha [7]: 80% | pest or weed control at 31 g/ha [7]: 50% | pest or weed control at 125 g/ha [8]: 0% | pest or weed control at 31 g/ha [8]: 0% | pest or weed control at 125 g/ha [9]: 0% | pest or weed control at 31 g/ha [9]: 0% | pest or weed control at 125 g/ha [10]: 0% | pest or weed control at 31 g/ha [10]: 0% | pest or weed control at 31 g/ha [11]: 0% | pest or weed control at 125 g/ha [11]: 0% | pest or weed control at 31 g/ha [12]: 0% | pest or weed control at 125 g/ha [12]: 0% | pest or weed control at 31 g/ha [13]: 20% | pest or weed control at 125 g/ha [13]: 70% | pest or weed control at 31 g/ha [14]: 0% | pest or weed control at 125 g/ha [14]: 0% | pest or weed control at 31 g/ha [15]: 40% | pest or weed control at 125 g/ha [15]: 80% | pest or weed control at 31 g/ha [16]: 0% | pest or weed control at 125 g/ha [16]: 0% | pest or weed control at 250 g/ha [17]: 0% | pest or weed control at 250 g/ha [18]: 95% | pest or weed control at 250 g/ha [19]: 15% | pest or weed control at 250 g/ha [20]: 60%

Cc1ccncc1NC(=O)[C@H]1C(=O)N(C)C[C@@H]1c1cccc(C(F)(F)F)c1 [Compound 1069]
plant injury at 125 g/ha [1]: 0% | plant injury at 31 g/ha [1]: 0% | pest or weed control at 125 g/ha [2]: 0% | pest or weed control at 31 g/ha [2]: 0% | pest or weed control at 125 g/ha [3]: 0% | pest or weed control at 31 g/ha [3]: 0% | plant injury at 125 g/ha [4]: 0% | Corn plant response rating (crop injury, 0 = no effect, 100 = complete kill) at 31 g/ha [4]: 0% | pest or weed control at 125 g/ha [5]: 0% | pest or weed control at 31 g/ha [5]: 0% | pest or weed control at 125 g/ha [6]: 0% | pest or weed control at 31 g/ha [6]: 0% | pest or weed control at 125 g/ha [7]: 0% | pest or weed control at 31 g/ha [7]: 0% | pest or weed control at 125 g/ha [8]: 0% | pest or weed control at 31 g/ha [8]: 0% | pest or weed control at 125 g/ha [9]: 0% | pest or weed control at 31 g/ha [9]: 0% | pest or weed control at 125 g/ha [10]: 0% | pest or weed control at 31 g/ha [10]: 0% | pest or weed control at 31 g/ha [11]: 0% | pest or weed control at 125 g/ha [11]: 0% | pest or weed control at 31 g/ha [12]: 0% | pest or weed control at 125 g/ha [12]: 0% | pest or weed control at 31 g/ha [13]: 0% | pest or weed control at 125 g/ha [13]: 50% | pest or weed control at 31 g/ha [14]: 0% | pest or weed control at 125 g/ha [14]: 0% | pest or weed control at 31 g/ha [15]: 0% | pest or weed control at 125 g/ha [15]: 0% | pest or weed control at 31 g/ha [16]: 0% | pest or weed control at 125 g/ha [16]: 0% | pest or weed control at 250 g/ha [17]: 0% | pest or weed control at 250 g/ha [18]: 35% | pest or weed control at 250 g/ha [19]: 0% | pest or weed control at 250 g/ha [20]: 20%
